Laboratory results published in PubChem BioAssay (NCI).
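Method: 48-hour compound exposure of cells in 96-well plates, five concentrations, linear interpolation of endpoints. GI50 = concentration required for 50% inhibition of growth. TGI: total growth inhibition.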

Experiments:
Assay in all cases: inhibition of tumour cell growth, NCI panel, 48 h
[1] = system: MDA-MB-231 breast
[2] = system: SF-268 CNS
[3] = system: SR leukemia
[4] = system: HOP-92 NSCLC
[5] = system: SK-MEL-5 melanoma
[6] = system: SK-MEL-2 melanoma
[7] = system: NCI-H226 lung
[8] = system: SNB-19 CNS
[9] = system: SF-539 CNS
[10] = system: MDA-MB-435
[11] = system: BT-549 breast
[12] = system: UO-31 renal
[13] = system: HL-60(TB) leukemia
[14] = system: A549 NSCLC
[15] = system: CAKI-1 renal
[16] = system: OVCAR-5 ovarian
[17] = system: OVCAR-4 ovarian
[18] = system: MCF7 breast
[19] = system: RXF 393 renal
[20] = system: DU-145 prostate
[21] = system: OVCAR-3 ovarian
[22] = system: A498 renal
[23] = system: HT29 colon
[24] = system: EKVX NSCLC
[25] = system: SK-OV-3 ovarian
[26] = system: NCI/ADR-RES ovarian
[27] = system: SN12C renal
[28] = system: SF-295 CNS
[29] = system: LOX IMVI melanoma
[30] = system: KM12 colon
[31] = system: MDA-N
[32] = system: PC-3 prostate
[33] = system: HCT-116 colon
[34] = system: SK-MEL-28 melanoma
[35] = system: OVCAR-8 ovarian
[36] = system: U251 CNS
[37] = system: HS 578T breast
[38] = system: HOP-62 NSCLC
[39] = system: TK-10 renal
[40] = system: UACC-62 melanoma
[41] = system: IGROV1 ovarian
[42] = system: COLO 205 colon
[43] = system: 786-0 renal
[44] = system: SNB-75 CNS
[45] = system: ACHN renal
[46] = system: SW-620 colon
[47] = system: MOLT-4 leukemia
[48] = system: T-47D breast
[49] = system: CCRF-CEM leukemia
[50] = system: NCI-H23 lung
[51] = system: HCC-2998 colon
[52] = system: RPMI-8226 leukemia
[53] = system: NCI-H460 lung
[54] = system: MALME-3M melanoma
[55] = system: UACC-257 melanoma
[56] = system: M14 melanoma
[57] = system: K-562 leukemia
[58] = system: NCI-H522 lung
[59] = system: HCT-15 colon
[60] = system: LXFL 529 NSCLC
[61] = system: M19-MEL melanoma
[62] = system: HOP-18 NSCLC
[63] = system: DLD-1 colon
[64] = system: KM20L2 colon

SMILES: CC(=O)OC(CC(C)C)P1(=O)N(CC(C)(C)C)[C@@H]2CCCC[C@H]2N1CC(C)(C)C (some centres undefined)
- TGI [1]: 19.7 µM
- TGI [2]: 29.3 µM
- TGI [3]: 30.4 µM
- TGI [4]: 10.7 µM
- TGI [5]: 21.9 µM
- TGI [6]: 19.6 µM
- TGI [7]: 23.2 µM
- TGI [8]: 21.9 µM
- TGI [9]: 22.3 µM
- TGI [10]: 25.3 µM
- TGI [11]: 29.2 µM
- TGI [12]: 21.2 µM
- TGI [13]: 23.1 µM
- TGI [14]: 18 µM
- TGI [15]: 26 µM
- TGI [16]: 22.9 µM
- TGI [17]: 23.6 µM
- TGI [18]: 17.4 µM
- TGI [19]: 18.1 µM
- TGI [20]: 29.4 µM
- TGI [21]: 23.1 µM
- TGI [22]: 19.3 µM
- TGI [23]: 19 µM
- TGI [24]: 23.5 µM
- TGI [25]: 30.7 µM
- TGI [26]: 22.6 µM
- TGI [27]: 24.4 µM
- TGI [28]: 20.4 µM
- TGI [29]: 25 µM
- TGI [30]: 24.1 µM
- TGI [31]: 21.3 µM
- TGI [32]: 13.6 µM
- TGI [33]: 16.2 µM
- TGI [34]: 28.6 µM
- TGI [35]: 21.9 µM
- TGI [36]: 20.1 µM
- TGI [37]: 25.3 µM
- TGI [38]: 29.9 µM
- TGI [39]: 24.7 µM
- TGI [40]: 23.3 µM
- TGI [41]: 24.2 µM
- TGI [42]: 18.2 µM
- TGI [43]: 23.9 µM
- TGI [44]: 20.6 µM
- TGI [45]: 19.3 µM
- TGI [46]: 29 µM
- TGI [47]: 25.3 µM
- TGI [48]: 19.7 µM
- TGI [49]: > 93.3 µM
- TGI [50]: 23.1 µM
- TGI [51]: 18.3 µM
- TGI [52]: 15.3 µM
- TGI [53]: 22 µM
- TGI [54]: 22.8 µM
- TGI [55]: 21.4 µM
- TGI [56]: 19.8 µM
- TGI [57]: 23.9 µM
- TGI [58]: 19.2 µM
- TGI [59]: 23.4 µM

SMILES: CC(=O)[CH-]C(=O)c1ccccc1.CC(=O)[CH-]C(=O)c1ccccc1.CC(=O)[CH-]C(=O)c1ccccc1.[Tl+3]
- GI50 [2]: 29.3 µM
- TGI [2]: > 100 µM
- GI50 [4]: 40.6 µM
- TGI [4]: > 85.7 µM
- GI50 [5]: 24.4 µM
- TGI [5]: > 66.8 µM
- GI50 [6]: 15.7 µM
- TGI [6]: > 100 µM
- GI50 [7]: 35.7 µM
- TGI [7]: > 100 µM
- GI50 [8]: 95.2 µM
- TGI [8]: > 100 µM
- GI50 [9]: 36.9 µM
- TGI [9]: > 100 µM
- GI50 [60]: 56.2 µM
- TGI [60]: > 100 µM
- GI50 [12]: 30.2 µM
- TGI [12]: > 100 µM
- GI50 [61]: 38 µM
- TGI [61]: > 100 µM
- GI50 [13]: 4.83 µM
- TGI [13]: 16.9 µM
- GI50 [14]: 42.1 µM
- TGI [14]: > 100 µM
- GI50 [62]: > 100 µM
- TGI [62]: > 100 µM
- GI50 [15]: 75 µM
- TGI [15]: > 100 µM
- GI50 [16]: > 100 µM
- TGI [16]: > 100 µM
- GI50 [17]: 26.1 µM
- TGI [17]: > 100 µM
- GI50 [19]: 56.2 µM
- TGI [19]: > 100 µM
- GI50 [21]: 24.1 µM
- TGI [21]: > 75.5 µM
- GI50 [22]: > 100 µM
- TGI [22]: > 100 µM
- GI50 [23]: 57.1 µM
- TGI [23]: > 100 µM
- GI50 [24]: 31.8 µM
- TGI [24]: > 100 µM
- GI50 [25]: > 61.8 µM
- TGI [25]: > 100 µM
- GI50 [27]: 72.6 µM
- TGI [27]: > 100 µM
- GI50 [28]: 48.7 µM
- TGI [28]: > 100 µM
- GI50 [29]: 42.7 µM
- TGI [29]: > 100 µM
- GI50 [30]: 42.8 µM
- TGI [30]: > 100 µM
- GI50 [33]: 28.2 µM
- TGI [33]: > 100 µM
- GI50 [34]: 74.3 µM
- TGI [34]: > 100 µM
- GI50 [35]: 59.3 µM
- TGI [35]: > 100 µM
- GI50 [63]: 22.2 µM
- TGI [63]: > 100 µM
- GI50 [36]: 42.6 µM
- TGI [36]: > 100 µM
- GI50 [38]: 33.5 µM
- TGI [38]: 99.9 µM
- GI50 [39]: > 59.2 µM
- TGI [39]: > 100 µM
- GI50 [40]: 32 µM
- TGI [40]: > 100 µM
- GI50 [64]: 45.6 µM
- TGI [64]: > 100 µM
- GI50 [41]: 24.5 µM
- TGI [41]: > 68.6 µM
- GI50 [42]: 25.9 µM
- TGI [42]: 97.7 µM
- GI50 [43]: 49.2 µM
- TGI [43]: > 100 µM
- GI50 [44]: 48.1 µM
- TGI [44]: > 100 µM
- GI50 [45]: 51.1 µM
- TGI [45]: > 100 µM
- GI50 [46]: 57.5 µM
- TGI [46]: > 100 µM
- GI50 [47]: 18.8 µM
- TGI [47]: > 69.4 µM
- GI50 [49]: 6.81 µM
- TGI [49]: 30.9 µM
- GI50 [50]: 45.4 µM
- TGI [50]: > 100 µM
- GI50 [51]: 37.5 µM
- TGI [51]: > 100 µM
- GI50 [52]: 11.1 µM
- TGI [52]: > 100 µM
- GI50 [53]: 22.6 µM
- TGI [53]: > 100 µM
- GI50 [54]: 20.2 µM
- TGI [54]: 49.2 µM
- GI50 [55]: 26.3 µM
- TGI [55]: 82.7 µM
- GI50 [56]: 24.7 µM
- TGI [56]: > 93 µM
- GI50 [57]: 2.32 µM
- TGI [57]: > 100 µM
- GI50 [58]: > 54.7 µM
- TGI [58]: > 100 µM
- GI50 [59]: 41.7 µM
- TGI [59]: > 100 µM

SMILES: CCN(CC)c1ccc2c(c1)Oc1ccc(N(C(C)=O)c3ccccc3)cc1C21OC(=O)c2ccccc21 (centres undefined)
- TGI [1]: > 100 µM
- TGI [2]: > 100 µM
- TGI [3]: > 100 µM
- TGI [4]: > 100 µM
- TGI [5]: > 100 µM
- TGI [6]: > 100 µM
- TGI [7]: > 100 µM
- TGI [8]: > 100 µM
- TGI [9]: > 100 µM
- TGI [10]: > 100 µM
- TGI [11]: > 100 µM
- TGI [12]: > 100 µM
- TGI [13]: 97.6 µM
- TGI [14]: > 100 µM
- TGI [15]: > 100 µM
- TGI [16]: > 100 µM
- TGI [17]: > 100 µM
- TGI [18]: > 100 µM
- TGI [19]: > 100 µM
- TGI [20]: > 100 µM
- TGI [21]: > 100 µM
- TGI [22]: > 100 µM
- TGI [23]: > 100 µM
- TGI [24]: > 100 µM
- TGI [25]: > 100 µM
- TGI [26]: > 100 µM
- TGI [27]: > 100 µM
- TGI [28]: > 100 µM
- TGI [29]: > 100 µM
- TGI [30]: > 100 µM
- TGI [31]: > 100 µM
- TGI [32]: > 100 µM
- TGI [33]: > 100 µM
- TGI [34]: > 100 µM
- TGI [35]: > 100 µM
- TGI [36]: > 100 µM
- TGI [37]: > 100 µM
- TGI [38]: > 100 µM
- TGI [39]: > 100 µM
- TGI [40]: > 100 µM
- TGI [41]: > 100 µM
- TGI [42]: > 100 µM
- TGI [43]: > 100 µM
- TGI [44]: > 100 µM
- TGI [45]: > 100 µM
- TGI [46]: > 100 µM
- TGI [47]: > 100 µM
- TGI [48]: > 100 µM
- TGI [49]: > 100 µM
- TGI [50]: > 100 µM
- TGI [51]: > 100 µM
- TGI [52]: > 100 µM
- TGI [53]: > 100 µM
- TGI [54]: > 100 µM
- TGI [55]: > 100 µM
- TGI [56]: > 100 µM
- TGI [57]: > 100 µM
- TGI [58]: > 100 µM
- TGI [59]: > 100 µM
